Where a SMILES comes first, the peptide text is derived from it. Where no end group is shown, it is not given here.
Experiments:
[1] = test system: EO771 (Murine mammary adenocarcinoma); assay: MTT cytotoxicity, EO771; assay type: cell-based; conditions: EO771, 24 hours incubation
From the text: (§1) The MTT assay is a colorimetric method for measuring the activity of enzymes in living cells that reduces Thiazolyl blue tetrazolium bromide (MTT) to formazan dyes showing a purple color. In this embodiment, a colorimetric 3-(4.5-dimethylthiazol-2-yl)-2.5-diphenyltetrazodium bromide (MTT) viability assay was used to assess the in vitro cytotoxicity of oncolytic peptides.
(§2) The half inhibition concentration (IC50) is the concentration required by the oncolytic peptides to reach fifty percent inhibition. In one embodiment, the oncolytic peptides were used for IC50 test via MTT colorimetric assay.
(§3) Human lung cancer lines PC9 and A549 and murine pancreatic cancer cell line Panc02 were cultured in RPMI medium supplemented with 10% fetal bovine serum and antibiotic in this embodiment. Additionally, murine hepatoma cell line Hepa 1-6, murine melanoma cell line B16-F10, murine fibrosarcoma cell line MN-11, murine mammary cancer cell line E0771 and human diploid fibroblast (HFW) were cultured in DMEM medium supplemented with 10% fetal bovine serum and antibiotic. Cells were cultured in a humidified incubator containing 5% CO2 at 37° C.
(§4) All cancer cell lines were seeded in a 96-well plate with a concentration of 5000-8000 cells/100 μl/well and incubated for 24 hrs. After medium was removed, 100 μl fresh medium containing peptide (ranging from 50 μM to 0.8 μM) was added to the wells. Following 24 hours incubation, fresh medium with MTT (0.5 mg/ml) was replaced and incubated for 3 hours. After medium/MTT was removed, DMSO was added at 100 μl for dissolving the formazan crystal. Cell survival rate was calculated by measuring the absorbance at 540 nm using a Multi-labeled Microplate Reader (Sunrise™, TECAN).

[2] = test system: RBC (Human blood cell); assay: Cytotoxicity, RBC; assay type: cell-based
From the text: as §2

[3] = test system: HCT-15 (Human colorectal cancer); assay: MTT cytotoxicity, HCT-15; assay type: cell-based; conditions: HCT-15, 24 hours incubation
From the text: as §1, §2, §4

[4] = test system: NCI-N87 (Human gastric carcinoma); assay: MTT cytotoxicity, NCI-N87; assay type: cell-based; conditions: NCI-N87, 24 hours incubation
From the text: as §1, §2, §4

[5] = test system: B16-F10 (Murine skin malignant melanoma); assay: MTT cytotoxicity, B16-F10; assay type: cell-based; conditions: B16-F10, 24 hours incubation
From the text: as §1, §2, §3, §4

[6] = test system: A549 (Human non-small cell lung cancer cell); assay: MTT cytotoxicity, A549; assay type: cell-based; conditions: A549, 24 hours incubation
From the text: as §1, §2, §3, §4

[7] = test system: HFW (Human fibroblast); assay: MTT cytotoxicity, HFW; assay type: cell-based; conditions: 24 hours incubation
From the text: as §1, §2, §3, §4

[8] = test system: PC9 (Human non-small cell lung cancer cell); assay: MTT cytotoxicity, PC9; assay type: cell-based; conditions: PC9, 24 hours incubation
From the text: as §1, §2, §3, §4

[9] = test system: MN-11 (Murine fibrosarcoma); assay: MTT cytotoxicity, MN-11; assay type: cell-based; conditions: MN-11, 24 hours incubation
From the text: as §1, §2, §3, §4

[10] = test system: C9 (Human oral cancer cell); assay: MTT cytotoxicity, C9; assay type: cell-based; conditions: C9, 24 hours incubation
From the text: as §1, §2, §4

[11] = Peptide stability in serum; assay type: in vitro ADME; conditions: 25% (vol/vol) bovine calf serum
Description: Since this kind of peptide is highly toxic, the hope is that the peptide can be decomposed after inducing cancer cells to release danger-associated molecular patterns (DAMPs), and will not stay in the body for too long. After exposure to 25% (vol/vol) bovine calf serum, the residues of peptides were analyzed by liquid chromatography, and the stability at different time points was calculated.

[12] = test system: Panc02; assay: MTT cytotoxicity, Panc02; assay type: cell-based, murine; conditions: Panc02, 24 hours incubation
From the text: as §1, §2, §3, §4

[13] = test system: A375 (human malignant melanoma); assay: MTT cytotoxicity, A375; assay type: cell-based; conditions: A375, 24 hours incubation
From the text: as §1, §2, §4

[14] = test system: HUVEC (Human Umbilical Vein Endothelial (Cell)); assay: MTT cytotoxicity, HUVEC; assay type: cell-based; conditions: 24 hours incubation
From the text: as §1, §2, §4

[15] = test system: OECM-1 (Human oral cancer cell); assay: MTT cytotoxicity, OECM-1; assay type: cell-based; conditions: OECM-1, 24 hours incubation
From the text: as §1, §2, §4

[16] = test system: SAS (Human tongue carcinoma); assay: MTT cytotoxicity, SAS; assay type: cell-based; conditions: 24 hours incubation
From the text: as §1, §2, §4

[17] = test system: HepG2 Cancer Cells (Human hepatocellular carcinoma); assay: MTT cytotoxicity, HepG2; assay type: cell-based; conditions: HepG2, 24 hours incubation
From the text: as §1, §2, §4

[18] = test system: Hepa I-6 (Murine hepatocellular carcinoma); assay: MTT cytotoxicity, Hepa 1-6; assay type: cell-based; conditions: Hepa I-6, 24 hours incubation
From the text: as §1, §2, §3, §4

[19] = read-out: Serum stability (residual peptide)

## KKKKRRKKWRKWLKWLAKK-NH2 [SEQ ID NO: 7, KKKK-RR-KK-WRK-WLK-WLA-KK-NH2]
[1]
  IC50: 6.16 µM
[2]
  IC50: 50.5 µM
[3]
  IC50: 7.13 µM
[4]
  IC50: 6.16 µM
[5]
  IC50: 15.3 µM
[6]
  IC50: 3.3 µM
[7]
  IC50: 12 µM
[8]
  IC50: 2.93 µM
[9]
  IC50: 5.73 µM
[10]
  IC50: 9.06 µM
[11]; 0 hr
  Serum stability (residual peptide): 100.00%
[11]; [19]
  remaining at 0.5 h: 101%
  remaining at 2 h: 72.1%
  remaining at 4 h: 59.5%
  remaining at 6 h: 54.4%
  remaining at 8 h: 44.4%
[11]; 1 hr
  Serum stability (residual peptide): 123.30%
[11]; after eight hours, read-out: Decrease of peptide in serum
  metabolised at 8 h: ~56%
[11]; at the fourth hour, read-out: Decrease of peptide in serum
  metabolised at 4 h: ~40%
[12]
  IC50: 10.6 µM
[13]
  IC50: 4.01 µM
[14]
  IC50: 3.95 µM
[15]
  IC50: 10.2 µM
[16]
  IC50: 7.67 µM
[17]
  IC50: 12.1 µM
[18]
  IC50: 4.92 µM

## CC(C)C[C@H](NC(=O)[C@H](Cc1ccc2ccccc2c1)NC(=O)[C@H](CCCCN)NC(=O)[C@H](CC(C)C)NC(=O)[C@H](Cc1c[nH]c2ccccc12)NC(=O)[C@H](CCCCN)NC(=O)[C@H](CCCNC(=N)N)NC(=O)[C@H](Cc1c[nH]c2ccccc12)NC(=O)[C@H](CCCCN)NC(=O)[C@H](CCCCN)NC(=O)[C@H](CCCNC(=N)N)NC(=O)[C@H](CCCNC(=N)N)NC(=O)[C@H](CCCCN)NC(=O)[C@H](CCCCN)NC(=O)[C@H](CCCCN)NC(=O)[C@@H](N)CCCCN)C(=O)N[C@@H](C)C(=O)N[C@@H](CCCCN)C(=O)N[C@@H](CCCCN)C(N)=O [SEQ ID NO: 8, KKKK-RR-KK-WRK-WLK-Nal-LA-KK-NH2] (HELM PEPTIDE1{K.K.K.K.R.R.K.K.W.R.K.W.L.K.[O=C([C@H](Cc1ccc2ccccc2c1)N[*:1])[*:2]].L.A.K.K.[am]}$$$$V2.0; N-terminus assumed)
[1]
  IC50: 3.3 µM
[2]
  IC50: 37.6 µM
[3]
  IC50: 3.16 µM
[4]
  IC50: 3.16 µM
[5]
  IC50: 9.73 µM
[6]
  IC50: 2.3 µM
[7]
  IC50: 7.29 µM
[8]
  IC50: 1.58 µM
[9]
  IC50: 3.49 µM
[10]
  IC50: 5.3 µM
[11]; 0 hr
  Serum stability (residual peptide): 100.00%
[11]; [19]
  remaining at 0.5 h: 105%
  remaining at 2 h: 106%
  remaining at 4 h: 70.4%
  remaining at 6 h: 71.3%
  remaining at 8 h: 66.5%
[11]; 1 hr, read-out: Serum stability (residual peptide)
  remaining at 1 h: 77.4%
[12]
  IC50: 2.66 µM
[13]
  IC50: 3.59 µM
[14]
  IC50: 5.6 µM
[15]
  IC50: 5.97 µM
[16]
  IC50: 3.98 µM
[17]
  IC50: 8.18 µM
[18]
  IC50: 3.59 µM

## CC(C)C[C@H](NC(=O)[C@H](Cc1ccc2ccccc2c1)NC(=O)[C@H](CCCCN)NC(=O)[C@H](CC(C)C)NC(=O)[C@H](Cc1c[nH]c2ccccc12)NC(=O)[C@H](CCCCN)NC(=O)[C@H](CC(C)C)NC(=O)[C@H](Cc1c[nH]c2ccccc12)NC(=O)[C@H](CCCNC(=N)N)NC(=O)[C@H](CCCNC(=N)N)NC(=O)[C@H](CCCCN)NC(=O)[C@H](CCCCN)NC(=O)[C@H](CCCCN)NC(=O)[C@@H](N)CCCCN)C(=O)N[C@@H](CCCCN)C(=O)N[C@@H](CCCCN)C(N)=O [SEQ ID NO: 6, KKKK-RR-WLK-WLK-Nal-LKK-NH2] (HELM PEPTIDE1{K.K.K.K.R.R.W.L.K.W.L.K.[O=C([C@H](Cc1ccc2ccccc2c1)N[*:1])[*:2]].L.K.K.[am]}$$$$V2.0; N-terminus assumed)
[1]
  IC50: 10 µM
[2]
  IC50: 35.4 µM
[3]
  IC50: 8.03 µM
[4]
  IC50: 9.41 µM
[5]
  IC50: 10.5 µM
[6]
  IC50: 7.07 µM
[7]
  IC50: 7.2 µM
[8]
  IC50: 3.36 µM
[9]
  IC50: 5.56 µM
[10]
  IC50: 12.7 µM
[12]
  IC50: 8.81 µM
[13]
  IC50: 10.8 µM
[14]
  IC50: 6.84 µM
[15]
  IC50: 16.4 µM
[16]
  IC50: 15.6 µM
[17]
  IC50: 14.2 µM
[18]
  IC50: 8.46 µM

## KKKKRRKKWLKWLKWLKKK-NH2 [SEQ ID NO: 4, KKKK-RR-KK-WLK-WLK-WLK-KK-NH2]
[1]
  IC50: 13.9 µM
[2]
  IC50: 58.6 µM
[3]
  IC50: 10.8 µM
[4]
  IC50: 15.1 µM
[5]
  IC50: 16.3 µM
[6]
  IC50: 8.89 µM
[7]
  IC50: 20.5 µM
[8]
  IC50: 7.87 µM
[9]
  IC50: 13.2 µM
[10]
  IC50: 16.6 µM
[12]
  IC50: 16 µM
[13]
  IC50: 9.98 µM
[14]
  IC50: 4.66 µM
[15]
  IC50: 18 µM
[16]
  IC50: 18.6 µM
[17]
  IC50: 14.6 µM
[18]
  IC50: 10.5 µM

## KKKKKKKKWRKWLKWLAKK-NH2 [SEQ ID NO: 1, KKKK-KK-KK-WRK-WLK-WLA-KK-NH2]
[1]
  IC50: 16.7 µM
[2]
  IC50: 52.6 µM
[3]
  IC50: 12.2 µM
[4]
  IC50: 17.1 µM
[5]
  IC50: 19.2 µM
[6]
  IC50: 7.19 µM
[7]
  IC50: 16.3 µM
[8]
  IC50: 8.48 µM
[9]
  IC50: 14.6 µM
[10]
  IC50: 21 µM
[12]
  IC50: 13.4 µM
[13]
  IC50: 10.6 µM
[14]
  IC50: 9.35 µM
[15]
  IC50: 18.8 µM
[16]
  IC50: 14.7 µM
[17]
  IC50: 13.4 µM
[18]
  IC50: 13.3 µM

From patent publication US20250250298A1, “ONCOLYTIC PEPTIDE AND USE THEREOF” (Rise Biopharmaceuticals Inc., priority 2022, published 2025)
